Where a name gives a salt, the structure may show the parent alone.
Key:
[1] = test system: ID188 patient-derived PDAC 2D line (pre-FOLFIRINOX); experiment: normalised area under dose-response curve (viability relative to DMSO, 7 doses up to 10 µM) (fraction (AUC)); higher = less sensitive (more viability retained); conditions: 72 h; top dose: 10 µM
Summary of the method: (§1)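 SelleckChem library compounds were tested for 72 h at seven concentrations (3-fold steps, highest 10 µM) on patient-derived 2D PDAC cells grown out from organoids. These cells had been robotically placed at 1,500–3,000 cells/well in 96-well plates and incubated overnight at 37°C with 5% CO2, and luminescence from CellTiter-Glo was recorded after 10 min. The GRmetrics R package gave the area under the dose-response curve from viability normalised to control wells.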

[2] = test system: ID211 patient-derived PDAC 2D line (post-FOLFIRINOX); experiment: as above; conditions: 72 h; top dose: 10 µM
Summary of the method: as §1

| Structure (SMILES) | normalised area under dose-response curve [1] | normalised area under dose-response curve [2] |
| --- | --- | --- |
| Cn1c(=O)cc(N2CCC[C@@H](N)C2)n(Cc2ccccc2C#N)c1=O [Alogliptin] | 0.952 | 0.817 |
| O=C1C(=O)N(Cc2ccc(Cl)c(Cl)c2)c2ccccc21 [Apoptosis Activator 2] | 0.952 | 0.969 |
| Nc1ncn([C@H]2C[C@H](O)[C@@H](CO)O2)c(=O)n1 [Decitabine] | 0.909 | 0.82 |
| O=C(CSc1nc2c(c(=O)n1-c1ccccc1)SCC2)Nc1ccc(-c2ccccc2)cn1 [IWP-L6] | 0.968 | 0.804 |
| O=C(NNc1ccccc1)c1ccncc1 | 0.961 | 0.899 |
| CN1c2ccccc2C(=O)Nc2cnc(Nc3ccc(N4CCC(O)CC4)cc3)nc21 [XMD16-5] | 0.906 | 0.783 |
| O=c1[nH]cnc2[nH]ncc12 [Allopurinol Sodium] | 0.951 | 0.843 |
| CC(C)CC(CC(=O)NO)C(=O)N[C@@H](Cc1ccc2ccccc2c1)C(=O)N[C@@H](C)C(=O)NCCN (stereo partly drawn) [TAPI-1] | 0.641 | 0.9 |
| CCn1c2ccccc2c2cc(CNCc3ccccc3OC)ccc21 [HLCL-61 HCL] | 0.957 | 0.856 |
| Cc1c[nH]c2nc(Nc3ccc(N4CCN(C)CC4)c(F)c3)nc(-c3cccc(CC#N)c3)c12 [SGI-7079] | 0.803 | 0.638 |
| C/C=C1\NC(=O)[C@H]2CSSCC/C=C/[C@H](CC(=O)N[C@H](C(C)C)C(=O)N2)OC(=O)[C@H](C(C)C)NC1=O [Romidepsin] | 0.138 | 0.171 |
| Cc1nn(C)c(COc2ccc(N3CCN(S(=O)(=O)N(C)C)CC3)cc2)c1-c1cccc2c(CCCOc3cccc4ccccc34)c(C(=O)O)n(CCN3CCOCC3)c12 | 0.98 | 0.938 |
| COc1cc(N2CCN(C)CC2)ccc1Nc1nccc(-c2cn(C)c3cnccc23)n1 [AZ191] | 0.971 | 0.867 |
| N.N.[Cl][Pt][Cl] [Cisplatin] | 0.95 | 0.86 |
| O=C(NC1CCNCC1)c1n[nH]cc1NC(=O)c1c(Cl)cccc1Cl [AT7519 HCl] | 0.725 | 0.673 |
| Cn1cc(/C=C2\C(=O)Nc3cccnc32)c2ccccc21 | 0.94 | 0.914 |
| CS(=O)(=O)N1CCN(Cc2cc3nc(-c4cccc5[nH]ncc45)nc(N4CCOCC4)c3s2)CC1 [Pictilisib (GDC-0941)] | 0.683 | 0.596 |
| COc1ccc(N2C(=O)/C(=C\c3ccc([N+](=O)[O-])s3)SC2=S)cc1 [CCF642] | 0.746 | 0.874 |
| Cn1cc(C2=C(c3ccc(Cl)cc3Cl)C(=O)NC2=O)c2ccccc21 | 0.813 | 0.787 |
| CC(C)N(CCCNC(=O)Nc1ccc(C(C)(C)C)cc1)C[C@H]1O[C@@H](n2ccc3c(N)ncnc32)[C@H](O)[C@@H]1O | 0.952 | 0.899 |
| Cc1ccc(NC(=O)c2ccc(CN3CCN(C)CC3)cc2)cc1Nc1nc(-c2cccnc2)cs1 [Masitinib (AB1010)] | 0.959 | 0.83 |
| CCCN(CCC)C(=O)C1=Cc2ccc(-c3ccc(C(=O)N4CCCC4)cc3)cc2N=C(N)C1 [Motolimod (VTX-2337)] | 0.969 | 0.822 |
| C=CCn1c(=O)c2cnc(Nc3ccc(N4CCN(C)CC4)cc3)nc2n1-c1cccc(C(C)(C)O)n1 [Adavosertib(MK-1775)] | 0.582 | 0.662 |
| O=C(Nc1ccccc1)c1cc([N+](=O)[O-])ccc1Cl [GW9662] | 0.931 | 0.936 |
| O=C(CBr)N1CC([N+](=O)[O-])([N+](=O)[O-])C1 [RRx-001] | 0.915 | 0.843 |
| Oc1cc(CNC(=S)/C=C/c2cc(O)c(O)c(Br)c2)cc(O)c1O [NT157] | 0.943 | 0.886 |
| c1ccc(-c2nn3c(c2-c2ccnc4cc(OCCN5CCOCC5)ccc24)CCC3)nc1 | 0.974 | 0.861 |

| Structure (SMILES) | normalised area under dose-response curve [1] | normalised area under dose-response curve [2] |
| --- | --- | --- |
| CC(C)(C)c1cc(NC(=O)Nc2ccc(-c3cn4c(n3)sc3cc(OCCN5CCOCC5)ccc34)cc2)no1 [Quizartinib (AC220)] | 0.974 | 0.809 |
| O=C(Cc1cccc(OC(F)(F)F)c1)Nc1ccc(CCCCc2nnc(NC(=O)Cc3ccccn3)s2)nn1 [CB-839] | 0.596 | 0.597 |
| CCC1C/C(=C\c2cccnc2)C(=O)/C(=C/c2cccnc2)C1 (stereo not drawn) [MCB-613] | 0.764 | 0.778 |
| Nc1ccc(S(=O)(=O)NC(=O)c2ccccc2)cc1 [Sulfabenzamide] | 0.926 | 0.747 |
| Cn1cc(C2=C(c3cn(C4CCN(Cc5ccccn5)CC4)c4ccccc34)C(=O)NC2=O)c2ccccc21 | 0.917 | 0.933 |
| O=c1[nH]c(C2CCCN2)nc2c1oc1ccc(Cl)cc12 (stereo not drawn) | 0.916 | 0.897 |
| CC(Nc1nc(N2CCCC2)nc2ccccc12)c1ccccc1 (stereo not drawn) [Importazole] | 0.956 | 0.849 |
| COc1cc(-n2c(=S)[nH]c3ccccc3c2=O)c(Cl)cc1Cl [Mdivi-1] | 0.885 | 0.957 |
| COC(=O)c1ccc2c(C(=Nc3ccc(N(C)C(=O)CN4CCN(C)CC4)cc3)c3ccccc3)c(O)[nH]c2c1 [Nintedanib Ethanesulfonate Salt] | 0.833 | 0.791 |
| Cc1nc(NC(=O)N2CCC[C@H]2C(N)=O)sc1-c1ccnc(C(C)(C)C(F)(F)F)c1 [Alpelisib (BYL719)] | 0.892 | 0.696 |
| Cn1ncc(Cl)c1-c1cc(C(=O)N[C@H](CN)Cc2ccc(F)c(F)c2)oc1Cl | 0.805 | 0.789 |
| Cc1cc(CS(=O)(=O)c2ccccc2)cc(OCc2ccc(CN3CCC[C@@H]3CO)cc2)c1 [PF-543] | 0.924 | 0.903 |
| C[C@@H]1CCN(C(=O)CC#N)C[C@@H]1N(C)c1ncnc2[nH]ccc12 | 0.759 | 0.881 |
| Oc1ccc(-c2nc(-c3ccc(F)cc3)c(-c3ccncc3)[nH]2)cc1 | 0.95 | 1 |
| COc1cc2c(cc1OC)CN(CCc1ccc(NC(=O)c3cccc4c(=O)c5cccc(OC)c5[nH]c34)cc1)CC2 | 1.02 | 0.682 |
| CC[C@]1(O)C[C@H]2CN(CCc3c([nH]c4ccccc34)[C@@](C(=O)OC)(c3cc4c(cc3OC)N(C=O)[C@H]3[C@@](O)(C(=O)OC)[C@H](OC(C)=O)[C@]5(CC)C=CCN6CC[C@]43[C@@H]65)C2)C1 [Vincristine sulfate] | 0.558 | 0.441 |
| N#CC[C@H](C1CCCC1)n1cc(-c2ncnc3[nH]ccc23)cn1 | 0.945 | 0.892 |
| CN(NC(=O)CC(=O)NN(C)C(=S)c1ccccc1)C(=S)c1ccccc1 [Elesclomol (STA-4783)] | 0.179 | 0.0189 |
| CC[C@H](NC(=O)[C@H](C)NC)C(=O)N1C[C@@H](O)C[C@H]1Cc1c(-c2[nH]c3cc(F)ccc3c2C[C@@H]2C[C@H](O)CN2C(=O)[C@H](CC)NC(=O)[C@H](C)NC)[nH]c2cc(F)ccc12 [Birinapant] | 0.315 | 1.02 |
| O=C1NC(=O)C(c2cnc3ccccn23)=C1c1cn2c3c(cc(F)cc13)CN(C(=O)N1CCCCC1)CC2 | 1.04 | 0.259 |
| COc1ccc(-c2ccc3c(N4CCOCC4)nc(N4C[C@@H](C)O[C@@H](C)C4)nc3n2)cc1CO | 0.825 | 0.831 |
| COc1ccc(CCc2nc3cc(-c4c(C)noc4C)ccc3n2C[C@H](C)N2CCOCC2)cc1Cl [SGC-CBP30] | 0.984 | 0.951 |
| CN(C)Cc1c(C(=O)NCCOc2ccc(C(=O)NO)cc2)oc2ccccc12 | 0.733 | 0.748 |
| CC(C)(C#N)c1cc(Cn2cncn2)cc(C(C)(C)C#N)c1 [Anastrozole] | 0.939 | 0.799 |
| C[C@@H](C(=O)Nc1ccc(Cl)cc1)C1CCC(c2ccnc3ccc(F)cc23)CC1 (stereo partly drawn) | 0.882 | 0.863 |
| COc1cc(OC)c2c(=O)[nH]c(-c3cc(C)c(OCCO)c(C)c3)nc2c1 [Apabetalone (RVX-208)] | 0.949 | 0.837 |
| CC(C)Oc1ccc(-c2c[nH]cc2CN(C)CCN)cc1 [MS023] | 0.842 | 0.634 |

From the supplement of paper PMC8988213
